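The compound was tested at five concentrations on cells cultured in 96-well plates, with a 48-hour exposure period. Definition used: TGI = concentration required for complete inhibition of growth.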
Legend:
Test in all cases: NCI-60 cell line screen, 48 h
[1] = tested on: SK-MEL-5 melanoma
[2] = tested on: OVCAR-5 ovarian
[3] = tested on: COLO 205 colon
[4] = tested on: KM12 colon
[5] = tested on: SNB-19 CNS
[6] = tested on: NCI-H522 lung
[7] = tested on: HCT-15 colon
[8] = tested on: HOP-62 NSCLC
[9] = tested on: HL-60(TB) leukemia
[10] = tested on: SNB-78 CNS
[11] = tested on: LXFL 529 NSCLC
[12] = tested on: KM20L2 colon
[13] = tested on: DLD-1 colon
[14] = tested on: UACC-257 melanoma
[15] = tested on: DMS 114 small cell lung
[16] = tested on: SK-MEL-2 melanoma
[17] = tested on: LOX IMVI melanoma
[18] = tested on: CCRF-CEM leukemia
[19] = tested on: SN12C renal
[20] = tested on: A498 renal
[21] = tested on: DMS 273 small cell lung
[22] = tested on: RPMI-8226 leukemia
[23] = tested on: MALME-3M melanoma
[24] = tested on: 786-0 renal
[25] = tested on: OVCAR-4 ovarian
[26] = tested on: CAKI-1 renal
[27] = tested on: OVCAR-8 ovarian
[28] = tested on: EKVX NSCLC
[29] = tested on: UACC-62 melanoma
[30] = tested on: TK-10 renal
[31] = tested on: A549 NSCLC
[32] = tested on: IGROV1 ovarian
[33] = tested on: SF-539 CNS
[34] = tested on: MOLT-4 leukemia
[35] = tested on: UO-31 renal
[36] = tested on: OVCAR-3 ovarian
[37] = tested on: SF-295 CNS
[38] = tested on: SW-620 colon
[39] = tested on: SK-OV-3 ovarian
[40] = tested on: HT29 colon
[41] = tested on: SF-268 CNS
[42] = tested on: SNB-75 CNS
[43] = tested on: NCI-H23 lung
[44] = tested on: K-562 leukemia
[45] = tested on: M14 melanoma
[46] = tested on: HCC-2998 colon
[47] = tested on: XF 498 CNS
[48] = tested on: SK-MEL-28 melanoma
[49] = tested on: U251 CNS
[50] = tested on: M19-MEL melanoma
[51] = tested on: HCT-116 colon
[52] = tested on: RXF 393 renal
[53] = tested on: NCI-H460 lung
[54] = tested on: ACHN renal
[55] = tested on: HOP-92 NSCLC
[56] = tested on: SR leukemia
[57] = tested on: NCI-H226 lung

## N#CCCN(c1ccc(/C=N/c2nc(-c3ccccc3)cs2)cc1)S(=O)(=O)c1ccccc1
[1]
  TGI: > 100 µM
[2]
  TGI: > 100 µM
[3]
  TGI: > 100 µM
[4]
  TGI: > 100 µM
[5]
  TGI: > 100 µM
[6]
  TGI: > 100 µM
[7]
  TGI: > 100 µM
[8]
  TGI: > 100 µM
[9]
  TGI: > 100 µM
[10]
  TGI: > 100 µM
[11]
  TGI: > 100 µM
[12]
  TGI: > 100 µM
[13]
  TGI: > 100 µM
[14]
  TGI: > 100 µM
[15]
  TGI: > 100 µM
[16]
  TGI: > 100 µM
[17]
  TGI: > 100 µM
[18]
  TGI: > 100 µM
[19]
  TGI: > 100 µM
[20]
  TGI: > 100 µM
[21]
  TGI: > 100 µM
[22]
  TGI: > 100 µM
[23]
  TGI: > 100 µM
[24]
  TGI: > 100 µM
[25]
  TGI: > 100 µM
[26]
  TGI: > 100 µM
[27]
  TGI: > 100 µM
[28]
  TGI: > 100 µM
[29]
  TGI: > 100 µM
[30]
  TGI: > 100 µM
[31]
  TGI: > 100 µM
[32]
  TGI: > 100 µM
[33]
  TGI: > 100 µM
[34]
  TGI: > 100 µM
[35]
  TGI: > 100 µM
[36]
  TGI: > 100 µM
[37]
  TGI: > 100 µM
[38]
  TGI: > 100 µM
[39]
  TGI: > 100 µM
[40]
  TGI: > 100 µM
[41]
  TGI: > 100 µM
[42]
  TGI: 93.5 µM
[43]
  TGI: > 100 µM
[44]
  TGI: > 100 µM
[45]
  TGI: > 100 µM
[46]
  TGI: > 100 µM
[47]
  TGI: > 100 µM
[48]
  TGI: > 100 µM
[49]
  TGI: > 100 µM
[50]
  TGI: > 100 µM
[51]
  TGI: > 100 µM

## O=C(Nc1ccc(F)cc1)C(=O)C(C(=O)c1ccccc1F)C1OC(=O)c2ccccc21 (stereo unspecified)
[1]
  TGI: > 100 µM
[2]
  TGI: > 100 µM
[3]
  TGI: > 100 µM
[4]
  TGI: > 100 µM
[5]
  TGI: > 100 µM
[6]
  TGI: 71.8 µM
[7]
  TGI: > 100 µM
[52]
  TGI: > 100 µM
[8]
  TGI: > 100 µM
[9]
  TGI: > 100 µM
[10]
  TGI: > 100 µM
[11]
  TGI: > 100 µM
[12]
  TGI: > 100 µM
[13]
  TGI: > 100 µM
[14]
  TGI: > 100 µM
[53]
  TGI: > 100 µM
[15]
  TGI: > 100 µM
[16]
  TGI: > 100 µM
[17]
  TGI: > 100 µM
[18]
  TGI: 90.8 µM
[19]
  TGI: > 100 µM
[20]
  TGI: > 100 µM
[21]
  TGI: > 100 µM
[54]
  TGI: > 100 µM
[22]
  TGI: > 100 µM
[55]
  TGI: > 100 µM
[25]
  TGI: > 100 µM
[26]
  TGI: > 100 µM
[27]
  TGI: > 100 µM
[28]
  TGI: > 100 µM
[29]
  TGI: > 100 µM
[30]
  TGI: > 100 µM
[31]
  TGI: > 100 µM
[32]
  TGI: > 100 µM
[56]
  TGI: 59.6 µM
[33]
  TGI: 89.9 µM
[57]
  TGI: 63.5 µM
[34]
  TGI: > 100 µM
[35]
  TGI: > 100 µM
[37]
  TGI: > 100 µM
[38]
  TGI: > 100 µM
[39]
  TGI: > 100 µM
[40]
  TGI: > 100 µM
[41]
  TGI: > 100 µM
[42]
  TGI: > 100 µM
[43]
  TGI: > 100 µM
[44]
  TGI: > 100 µM
[45]
  TGI: > 100 µM
[46]
  TGI: > 100 µM
[47]
  TGI: > 100 µM
[48]
  TGI: > 100 µM
[49]
  TGI: 66.1 µM
[51]
  TGI: > 100 µM

## CC(=O)NNc1nc(C)c(C(=O)NNC(=O)C(=O)Nc2c(C)cccc2C(C)C)s1
[1]
  TGI: > 100 µM
[2]
  TGI: > 100 µM
[3]
  TGI: > 100 µM
[4]
  TGI: > 100 µM
[5]
  TGI: > 100 µM
[6]
  TGI: > 100 µM
[7]
  TGI: > 100 µM
[8]
  TGI: > 100 µM
[9]
  TGI: > 100 µM
[10]
  TGI: > 100 µM
[11]
  TGI: > 100 µM
[12]
  TGI: > 100 µM
[14]
  TGI: > 100 µM
[53]
  TGI: > 100 µM
[15]
  TGI: > 100 µM
[16]
  TGI: > 100 µM
[17]
  TGI: > 100 µM
[18]
  TGI: > 100 µM
[19]
  TGI: > 100 µM
[20]
  TGI: > 100 µM
[21]
  TGI: > 100 µM
[54]
  TGI: > 100 µM
[22]
  TGI: > 100 µM
[55]
  TGI: > 100 µM
[23]
  TGI: > 100 µM
[24]
  TGI: > 100 µM
[25]
  TGI: > 100 µM
[27]
  TGI: > 100 µM
[28]
  TGI: > 100 µM
[29]
  TGI: > 100 µM
[30]
  TGI: > 100 µM
[31]
  TGI: > 100 µM
[32]
  TGI: > 100 µM
[56]
  TGI: > 100 µM
[33]
  TGI: > 100 µM
[57]
  TGI: > 100 µM
[34]
  TGI: > 100 µM
[35]
  TGI: > 100 µM
[36]
  TGI: > 100 µM
[37]
  TGI: > 100 µM
[38]
  TGI: > 100 µM
[39]
  TGI: > 100 µM
[40]
  TGI: > 100 µM
[41]
  TGI: > 100 µM
[43]
  TGI: > 100 µM
[44]
  TGI: > 100 µM
[45]
  TGI: > 100 µM
[46]
  TGI: > 100 µM
[47]
  TGI: > 100 µM
[48]
  TGI: > 100 µM
[50]
  TGI: > 100 µM
[51]
  TGI: > 100 µM
